Results published in paper PMC9174266, “Isolation, characterization and biological activities of betulin from Acacia nilotica bark” (Scientific Reports, 2022).

What was measured:
[1] = molecular target: T1, COX-2 (Ovis aries, UniProt P79208); experiment: COX (ovine) inhibitor screening assay kit, PGF2α produced by SnCl2 reduction of COX-derived PGH2, read at […] nm; format: biochemical
T1 construct: gene PTGS2
T1 sequence (P79208 17-603): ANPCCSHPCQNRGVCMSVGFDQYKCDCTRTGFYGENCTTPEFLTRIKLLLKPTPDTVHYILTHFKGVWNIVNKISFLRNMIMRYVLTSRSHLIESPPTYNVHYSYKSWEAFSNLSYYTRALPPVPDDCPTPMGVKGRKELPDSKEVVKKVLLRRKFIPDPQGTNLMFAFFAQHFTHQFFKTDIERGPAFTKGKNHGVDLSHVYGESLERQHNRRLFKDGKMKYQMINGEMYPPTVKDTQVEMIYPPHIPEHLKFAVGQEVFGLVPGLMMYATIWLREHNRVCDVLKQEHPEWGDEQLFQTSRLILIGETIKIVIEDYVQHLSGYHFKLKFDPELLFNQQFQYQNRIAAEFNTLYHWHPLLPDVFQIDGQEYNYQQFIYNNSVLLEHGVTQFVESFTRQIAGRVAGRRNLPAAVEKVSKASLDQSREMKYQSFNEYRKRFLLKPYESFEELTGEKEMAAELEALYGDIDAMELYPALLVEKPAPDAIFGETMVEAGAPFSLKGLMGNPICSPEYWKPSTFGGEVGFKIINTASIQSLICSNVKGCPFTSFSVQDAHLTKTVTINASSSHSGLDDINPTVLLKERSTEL

[2] = molecular target: T2, COX-1 (Ovis aries, UniProt P05979); experiment: COX (ovine) inhibitor screening assay kit; […] inhibition at […]; format: biochemical
T2 construct: gene PTGS1
T2 sequence (P05979 25-600): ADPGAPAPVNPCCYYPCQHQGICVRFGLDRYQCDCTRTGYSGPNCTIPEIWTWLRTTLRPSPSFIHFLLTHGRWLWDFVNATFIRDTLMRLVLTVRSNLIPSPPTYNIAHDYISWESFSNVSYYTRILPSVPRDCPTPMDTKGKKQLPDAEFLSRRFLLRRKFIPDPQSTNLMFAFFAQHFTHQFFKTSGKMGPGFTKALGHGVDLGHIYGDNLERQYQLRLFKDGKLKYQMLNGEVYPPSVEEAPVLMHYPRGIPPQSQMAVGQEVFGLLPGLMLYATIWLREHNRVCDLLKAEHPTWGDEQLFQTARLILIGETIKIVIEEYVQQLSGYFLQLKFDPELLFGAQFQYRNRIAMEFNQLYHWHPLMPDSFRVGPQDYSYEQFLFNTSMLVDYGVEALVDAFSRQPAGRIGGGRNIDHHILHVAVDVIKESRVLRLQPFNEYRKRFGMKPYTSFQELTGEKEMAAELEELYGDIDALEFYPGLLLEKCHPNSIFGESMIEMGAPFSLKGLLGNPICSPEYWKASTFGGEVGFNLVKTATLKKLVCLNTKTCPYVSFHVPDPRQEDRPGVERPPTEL

Question: How did the IC50 [1] turn out when `C=C(C)[C@@H]1CC[C@]2(CO)CC[C@]3(C)[C@H](CC[C@@H]4[C@@]5(C)CC[C@H](O)C(C)(C)[C@@H]5CC[C@]43C)[C@@H]12` [AN-10] was run?
Answer: < 1 µM

Question: What about the IC50 [2] of the same compound?
Answer: > 10 µM
